Test results as given in patent US20050003509A1, “Method for modulating C.albicans” (priority 2003, published 2005).

Tests used:
C.albicans [1] = assay: induction of morphological transition (hyphae) in buffer; assay type: cell-based; conditions: 10 mM proline or 2.5 mM Glc-Nac in 10 mM MES pH 6.4, 12 hours, 37° C.
Experimental: To test this, stains were grown in YPD, as described supra, washed, and were resuspended in buffer at an OD600 of 1, or buffer (10 MM MES, pH 6.4) containing either 10 mM proline, or 2.5 mM Glc-Nac. The suspensions were incubated for 12 hours, at 37° C., after which the suspensions were examined microscopically.

[2] = test system: S.cervesiae strain FGY145; assay: growth of transformed shr3Δ6 S.cervesiae strain FGY145 with toxic amino acids; assay type: cell-based, S.cerevisiae; conditions: 30° C., six days
Experimental: Standard culture conditions and media for S.cervesiae and C.albicans have been described by Sherman, in Guthrie, ed. Guide to Yeast Genetics And Molecular Biology (Academic Press, 1991), pp. 3-21, incorporated by reference. To elaborate, Ura^− strains of C.albicans were grown in standard media, supplemented with 25 μg/ml of uridine. Tests on S.cerevisiae were carried out in SD medium supplemented with histidine, as well as various toxic amino acid analogs, i.e., L-canaranine (1 μg/ml), L-azetidine-2-carboxylate (500 μg/ml), B-chloro-D, L-alanine (100 μg/ml), p-fluoro-D, L-phenylalanine (400 μg/ml), D, L-ethionine (300 μg/ml), and 2-aminoethyl-L-cysteine (225 μg/ml). Ljungdahl, et al., Cell, 71:463-478 (1992), was followed to produce SPD and SPD containing 30 mM histidine.
Cell suspension of shr3Δ6 S.cervesiae strain FGY145 described by Gilstring, et al., Mol. Cell Biol., 10:3549-3565 (1999), were transformed with either control plasma pRS316, pPL210, which encodes SHR3 and is described by Ljungdahl, et al., supra, or pPM20, which encodes CSH3, and is described supra. The transformants were spotted on the described SD media, and grown in the presence of the toxic amino acids described supra. Suspensions of the cells were also grown on SPD, and SPD containing 30 mM histidine. […]

C.albicans [3] = assay: growth on YNB medium with lysine as sole nitrogen source; assay type: cell-based; conditions: 0, 0.1, 1 and 3 mM lysine
Experimental: Cells were then grown on YNB medium, containing varying concentrations of lysine (0, 0.1, 1 and 3 mM), as sole nitrogen source. A striking gene dosage effect was observed. As expected, none of the strains were able to grow in the absence of lysine, whereas they grew weakly when 0.1 mM lysine was present, showing the C.albicans can metabolize lysine. […] The heterozygous strains have balanced the opposing activities.

Question: Which results are given for `CC(=O)N[C@H]1C(O)O[C@H](CO)[C@@H](O)[C@@H]1O` (stereo partly drawn) [Glc-Nac, N-acetyl glucosamine]?
Answer: hyphal development (C.albicans [1]; (+/+) wild type): extensive hyphal development; hyphal development (C.albicans [1]; (−/−) cells): extensive hyphal development

Question: For `N[C@@H](Cc1c[nH]cn1)C(=O)O` [histidine], which growth sensitivity ([2]; transformants carrying SHR3 (CSH3 transformants indistinguishable)) is on record?
Answer: sensitive

Question: What about the growth sensitivity ([2]; transformants with control plasmid pRS316) of the same molecule?
Answer: resistant

Question: How did the “growth with increasing lysine concentration” value (C.albicans [3]; CSH3/CSH3 (+/+) strain) turn out when `NCCCC[C@H](N)C(=O)O` [lysine] was run?
Answer: decrease at concentrations above 1 mM

Question: And the “growth with increasing lysine concentration” value (C.albicans [3]; heterozygous strains)?
Answer: robust growth at concentrations greater than 1 mM

Question: What about the “growth with increasing lysine concentration” value (C.albicans [3]; homozygous null mutant) of the same molecule?
Answer: improved noticeably

Question: What does the source list for `O=C(O)[C@@H]1CCCN1` [proline]?
Answer: hyphal development (C.albicans [1]; (+/+) wild type): developed hyphae readily; hyphal development (C.albicans [1]; (−/−) cells): only a few cells with short germ tubules
